For 1 compound, Ki results are on record in ChEMBL document CHEMBL5727310, “Substituted morpholine derivatives having activity against pain” (2019).

The structures appear in SMILES notation. Where only a bound is given, the exact number is not on record here.

This test deals with Sigma non-opioid intracellular receptor 1 (Homo sapiens, UniProt Q99720). As to the kind of experiment: Receptor Radioligand Assay: To investigate binding properties of test compounds to human σ1 receptor, transfected HEK-293 membranes and [3H](+)-pentazocine (Perkin Elmer, NET-1056), as the radioligand, were used. The assay was carried out with 7 μg of membrane suspension, 5 nM of [3H](+)-pentazocine in either absence or presence of either buffer or 10 μM Haloperidol for total and non-specific binding, respectively. Binding buffer contained Tris-HCl 50 mM at pH 8. Plates were incubated at 37° C. for 120 minutes. After the incubation period, the reaction mix was then transferred to MultiScreen HTS, FC plates (Millipore), filtered and plates were washed 3 times with ice-cold 10 mM Tris-HCL (pH7.4). Filters were dried and counted at approximately 40% efficiency in a MicroBeta scintillation counter (Perkin-Elmer) using EcoScint liquid scintillation cocktail.
Sequence of Sigma non-opioid intracellular receptor 1 (Q99720 whole entry): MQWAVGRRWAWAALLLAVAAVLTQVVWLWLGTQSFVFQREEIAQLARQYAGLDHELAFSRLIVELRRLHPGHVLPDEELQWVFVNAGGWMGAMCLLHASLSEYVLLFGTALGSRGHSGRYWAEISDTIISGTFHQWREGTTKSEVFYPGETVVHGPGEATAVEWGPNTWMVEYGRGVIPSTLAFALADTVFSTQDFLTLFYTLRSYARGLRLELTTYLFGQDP

Take `CCN1CC(C2CCN(CCC(C)C)CC2)OC2(CC2)C1` (stereo unspecified): the inhibition constant (Ki) was less than 0.5 µM.
